{
  "source": "patent US4513001A",
  "about": "“β-Adrenergic 1-[1-benzimidazolyl]-N-[2-(4-hydroxy-3-methoxy-phenyl)-2-hydroxy-ethyl]- 3-amino butane and salts and hydrates thereof” (priority 1982, dated 1985)",
  "key": {"heart rate [1]": {"tested_on": "heart rate", "experiment": "β-stimulant specificity: heart rate of the anesthetised dog, antagonism of compound A tachycardia by acebutolol", "type": "in vivo", "text": "The results below are the averages of the values obtained in 3 dogs."}, "heart rate [2]": {"tested_on": "heart rate", "experiment": "Heart rate of the un-anesthetised dog, oral", "type": "in vivo, Beagle dog"}, "[3]": {"experiment": "Acute toxicity in the mouse, intravenous", "conditions": "in vivo", "text": "These two compounds were the subject of an acute toxicity study in the mouse.\nThe two compounds had similar toxicity and the pharmacological study was able, indifferently, to be carried out with one or the other, the results being, in the two cases, expressed by weight of base per kg of body weight for the in vivo tests and in molar concentration for the in vitro tests."}, "[4]": {"conditions": "T1 + 1 min after acebutolol 0.5 mg/kg i.v., following compound A perfusion"}, "[5]": {"conditions": "T1 + 5 min after acebutolol 0.5 mg/kg i.v."}, "[6]": {"conditions": "T1 + 15 min after acebutolol 0.5 mg/kg i.v."}, "[7]": {"conditions": "T1 + 30 min (printed T i) after acebutolol 0.5 mg/kg i.v."}, "[8]": {"conditions": "T1 + 1 h after acebutolol 0.5 mg/kg i.v."}, "[9]": {"conditions": "T1 + 4 h after acebutolol 0.5 mg/kg i.v."}},
  "note": "Read-outs that look alike come from different tables or passages of the source.",
  "data": [
    {"smiles": "CCCC(=O)Nc1ccc(OCC(O)CNC(C)C)c(C(C)=O)c1", "note": "(centres unmarked) [Acebutolol, reference compound]", "values": [
      {"measurement": "Heart rate", "setting": "heart rate [1]; [4]", "result": 162, "unit": "beats/min"},
      {"measurement": "Heart rate variation", "setting": "heart rate [1]; [4]", "result": "+5"},
      {"measurement": "Heart rate", "setting": "heart rate [1]; [5]", "result": 156, "unit": "beats/min"},
      {"measurement": "Heart rate variation", "setting": "heart rate [1]; [5]", "result": -1},
      {"measurement": "Heart rate", "setting": "heart rate [1]; [6]", "result": 149, "unit": "beats/min"},
      {"measurement": "Heart rate variation", "setting": "heart rate [1]; [6]", "result": -8},
      {"measurement": "Heart rate", "setting": "heart rate [1]; [7]", "result": 147, "unit": "beats/min"},
      {"measurement": "Heart rate variation", "setting": "heart rate [1]; [7]", "result": -10},
      {"measurement": "Heart rate", "setting": "heart rate [1]; [8]", "result": 154, "unit": "beats/min"},
      {"measurement": "Heart rate variation", "setting": "heart rate [1]; [8]", "result": -3},
      {"measurement": "Heart rate", "setting": "heart rate [1]; [9]", "result": 143, "unit": "beats/min"},
      {"measurement": "Heart rate variation", "setting": "heart rate [1]; [9]", "result": -14},
      {"measurement": "Antagonism of the tachycardia caused by compound A", "setting": "heart rate [1]; acebutolol 0.5 mg/kg i.v., compound A perfused 6 min at 4.2 μg/kg/min", "result": "completely antagonises the tachycardia caused by compound A"}
    ]},
    {"smiles": "COc1cc(C(O)CNC(C)CCn2cnc3ccccc32)ccc1O.Cl.Cl.O.O", "note": "(centres unmarked) [Compound B, 1-[1-benzimidazolyl]-N-[2-(4-hydroxy-3-methoxy-phenyl)-2-hydroxy-ethyl]-3-amino-butane dihydrochloride, dihydrate]", "values": [
      {"measurement": "Heart rate, average", "setting": "heart rate [2]; 22 μg base/kg, 15 min, time 0: 94, 12 dogs", "result": 130},
      {"measurement": "Heart rate, average", "setting": "heart rate [2]; 22 μg base/kg, 30 min, time 0: 94", "result": 129},
      {"measurement": "Heart rate, average", "setting": "heart rate [2]; 22 μg base/kg, 1 h, time 0: 94", "result": 129},
      {"measurement": "Heart rate, average", "setting": "heart rate [2]; 22 μg base/kg, 2 h, time 0: 94", "result": 119},
      {"measurement": "Heart rate, average", "setting": "heart rate [2]; 22 μg base/kg, 3 h, time 0: 94", "result": 109},
      {"measurement": "Heart rate, average", "setting": "heart rate [2]; 22 μg base/kg, 4 h, time 0: 94", "result": 104},
      {"measurement": "Heart rate, average", "setting": "heart rate [2]; 22 μg base/kg, 5 h, time 0: 94", "result": 102},
      {"measurement": "Heart rate, average", "setting": "heart rate [2]; 72 μg base/kg, 15 min, time 0: 90, 12 dogs", "result": 147},
      {"measurement": "Heart rate, average", "setting": "heart rate [2]; 72 μg base/kg, 30 min, time 0: 90", "result": 162},
      {"measurement": "Heart rate, average", "setting": "heart rate [2]; 72 μg base/kg, 1 h, time 0: 90", "result": 162},
      {"measurement": "Heart rate, average", "setting": "heart rate [2]; 72 μg base/kg, 2 h, time 0: 90", "result": 160},
      {"measurement": "Heart rate, average", "setting": "heart rate [2]; 72 μg base/kg, 3 h, time 0: 90", "result": 146},
      {"measurement": "Heart rate, average", "setting": "heart rate [2]; 72 μg base/kg, 4 h, time 0: 90", "result": 132},
      {"measurement": "Heart rate, average", "setting": "heart rate [2]; 72 μg base/kg, 5 h, time 0: 90", "result": 125},
      {"measurement": "Heart rate, average", "setting": "heart rate [2]; 72 μg base/kg, 6 h, time 0: 90", "result": 115},
      {"measurement": "Heart rate, average", "setting": "heart rate [2]; 72 μg base/kg, 7 h, time 0: 90", "result": 112},
      {"measurement": "Tachycardiac activity (comparison with Salbutamol)", "setting": "heart rate [2]; un-anesthetised dog, in words", "result": "distinctly less tachycardiac than Salbutamol"},
      {"measurement": "LD50", "setting": "[3]; as base, confidence limits printed, read-out: LD50 expressed as base", "result": 106, "unit": "mg/kg"},
      {"measurement": "LD50", "setting": "[3]; by weight of product, confidence limits p=0.05 printed, read-out: LD50", "result": 148, "unit": "mg/kg"}
    ]}
  ]
}
